Source: PMC10799042 (Scientific Reports, 2024)

Columns and labels:
[1] = test system: Reduced glutathione (GSH); test: Reduced glutathione (GSH) assay in brain homogenate; type: in vivo; settings: brain THS of mice, scopolamine 1.5 mg/kg i.p.; donepezil and compounds 2 mg/kg p.o.; mean ± SD
Experimental: (§1) The animals were properly acclimated before being randomly placed into 12 groups (I-XII), with six animals in each group. […] Following the delivery of the dose to the mouse, the rodent's behaviour was assessed using the traditional Morris water maze (MWM) technique.
(§2) After five days of behavioral assessment, the mice's brains were removed and homogenized (blended) in chilled phosphate buffer (pH 7.4) at a concentration of 10% w/v (weight per volume). The homogenates were then centrifuged (spun at high speed) for 20 min at 4 °C to separate the supernatant (liquid) from the pellet (solid material). The supernatant was then collected to measure biological substances.
The method described by Jollow et al. was used to measure glutathione (GSH) levels. First, 1.0 mL of 4% sulfosalicylic acid was added to 1.0 mL of tissue homogenate to precipitate the GSH. The mixture was then incubated at 4 °C for 1 h and centrifuged at 1200 rpm for 10 min at 4 °C. The supernatant was collected and diluted to a final volume of 3.0 mL with phosphate buffer and Ellman's reagent. […]

malondialdehyde (MDA) = test: Lipid peroxidation (LPO) assay, MDA in brain homogenate; type: in vivo; settings: brain THS of mice, scopolamine 1.5 mg/kg i.p.; donepezil and compounds 2 mg/kg p.o.; mean ± SD
Experimental: as §1, §2
The amount of malondialdehyde (MDA), a marker of lipid peroxidation (LPO), was measured using a method described by Wills[10]. Tris–HCl buffer and THS were mixed and incubated at 37 °C for 2 h with 10% trichloroacetic acid. After incubation, the mixture was centrifuged again (at 1000 rpm for 10 min). […] After cooling, 1.0 mL of double-distilled water was added, and the absorbance was measured at 532 nm.

[2] = test system: Superoxide dismutase (SOD); test: Superoxide dismutase (SOD) assay in brain homogenate; type: in vivo; settings: brain THS of mice, scopolamine 1.5 mg/kg i.p.; donepezil and compounds 2 mg/kg p.o.; mean ± SD
Experimental: as §1, §2
The samples contained EDTA, sodium carbonate, and NBT, and the assay was performed using Kono's method. Each sample tube contained 2.0 mL of this mixture, as well as THS and hydroxylamine. The absorbance of the mixture was measured at 560 nm every 30 or 60 s for 2 min to track changes in absorbance.

Catalase = Catalase assay in brain homogenate; type: in vivo; settings: brain THS of mice, scopolamine 1.5 mg/kg i.p.; donepezil and compounds 2 mg/kg p.o.; mean ± SD
Experimental: as §1, §2
Employing the methodology of Luck et al., catalase activity was quantified. The sample contained H2O2 (1.0 mL, 0.019 M), phosphate buffer (1.95 mL, 0.05 M, pH 7.0), and THS (0.05 mL). The optical density was computed at a wavelength of 240 nm. The findings were shown as μM H2O2 decomposition/min/mg protein[13].

nitrite = test: Nitrite assay (Greiss reagent) in brain homogenate; type: in vivo; settings: brain THS of mice, scopolamine 1.5 mg/kg i.p.; donepezil and compounds 2 mg/kg p.o.; mean ± SD
Experimental: as §1, §2
The amount of nitric oxide in THS was calculated using Greiss' reagent, a mixture of chemicals that reacts with nitric oxide to produce a colored product. The absorbance of the colored product was computed at 540 nm and the concentration of nitrite was determined using a standard curve of known nitrite concentrations.

[3] = test system: scopolamine-induced memory impairment and learning disability in mice; test: Morris water maze, scopolamine-induced memory impairment; type: in vivo, Swiss albino male mice; settings: for escape latency versus scopolamine-treated mice (in words): 2 mg/kg, day 1 to 5; for Escape latency, 2nd Day: day 2; for Escape latency, 3rd Day: day 3; for Escape latency, 4th Day: day 4; for Escape latency, 5th Day: day 5
Experimental: Swiss albino male mice weighing 25–30 g were purchased from LLRUVAS in Hisar, Haryana, India. […] The housing, care, and handling of the animals were done per CPCSEA requirements. The animals were exposed to the laboratory setting for seven days before the experiment.
as §1
Five days of continuous animal evaluations were conducted using the MWM model. […] The tank was placed in a dim laboratory, and using wires anchored at the pool's edge at an angle to one another, it was divided into four equal pieces (P1–P4). A stage in the targeted area (P4) of the pool with an upper face (6 × 6 cm^2) immersed in the water (1.0 cm below the surface). The location of the stage stayed the same throughout the evaluation. The animals were subjected to water pools throughout the evaluation by turning their heads towards the wall from any of the four segments, namely P1-P4, and being given 90 s to recognise the stage placed in a pool. If the animal couldn't get to the stage in 90 s, they were gently guided onto the stage under supervision. On the sixth day, one of the parameters used to determine if cognitive impairments have recovered was the time it took the mice to travel from the initial portion to locate the hidden stage in the intended part (escape latency). […]

[4] = biological target: T1, Acetylcholinesterase (AChE) (Mus musculus, UniProt P21836); settings: brain THS of mice, scopolamine 1.5 mg/kg i.p.; donepezil and compounds 2 mg/kg p.o.; mean ± SD
T1 sequence (P21836 32-614): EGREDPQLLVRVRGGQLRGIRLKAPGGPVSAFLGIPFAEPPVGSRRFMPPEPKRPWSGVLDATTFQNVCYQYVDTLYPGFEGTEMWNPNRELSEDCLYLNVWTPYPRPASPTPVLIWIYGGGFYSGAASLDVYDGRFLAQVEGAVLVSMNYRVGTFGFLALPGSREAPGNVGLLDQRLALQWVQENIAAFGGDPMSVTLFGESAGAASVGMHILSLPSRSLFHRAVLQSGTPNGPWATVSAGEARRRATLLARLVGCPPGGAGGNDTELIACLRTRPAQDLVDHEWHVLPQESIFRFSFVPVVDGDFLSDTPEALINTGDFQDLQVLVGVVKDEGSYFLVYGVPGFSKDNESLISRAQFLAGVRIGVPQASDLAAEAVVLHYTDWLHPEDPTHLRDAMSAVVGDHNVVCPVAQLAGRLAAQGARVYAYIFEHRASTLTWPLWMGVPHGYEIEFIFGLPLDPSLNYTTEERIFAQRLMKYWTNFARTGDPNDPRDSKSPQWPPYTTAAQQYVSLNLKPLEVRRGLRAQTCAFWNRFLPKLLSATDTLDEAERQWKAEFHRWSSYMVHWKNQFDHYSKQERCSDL
Experimental: as §1, §2
Employing Ellman et al., methodology, AChE levels were quantified in tissue homogenate supernatant (THS) to evaluate cholinergic abnormalities.

[5] = mice, scopolamine 1.5 mg/kg i.p., donepezil and compounds 2 mg/kg p.o. with scopolamine, mean ± SD

Substance: N-(1-(1-(3,4-dimethoxybenzyl)-2-oxopyrrolidin-3-yl)piperidin-4-yl)-2,4-difluorobenzenesulfonamide [Compound 10]
- GSH assay, μmol of GSH/mg Protein [1]: 0.10 ± 0.005 μmol of GSH/mg Protein
- LPO assay, MDA levels (malondialdehyde (MDA)): 8.52 ± 0.05 nM/mg of tissue
- SOD assay, SOD units/mg protein [2]: 3.07 ± 0.04 SOD units/mg protein
- Catalase assay, Catalase activity (Catalase): 4.3 ± 0.01 min⁻¹
- Nitrite assay, nitrite conc. (nitrite): 12.82 ± 0.04 μM/mg protein
- escape latency versus scopolamine-treated mice (in words) [3]: significantly reduced escape latency
- Escape latency, 1st Day ([3]; mice, scopolamine 1.5 mg/kg i.p., donepezil and compounds 2 mg/kg p.o. with scopolamine, day 1, mean ± SD): 80.33 ± 1.09 s
- Escape latency, 2nd Day [3, 5]: 36 ± 1.09 s
- Escape latency, 3rd Day [3, 5]: 25.33 ± 1.79 s
- Escape latency, 4th Day [3, 5]: 17 ± 1.67 s
- Escape latency, 5th Day [3, 5]: 3.66 ± 1.88 s
- μM of AChE/min/mg protein [4]: 0.01 ± 0.01 μM of AChE/min/mg protein

Substance: N-(1-(1-(3,4-dimethoxybenzyl)-2-oxopyrrolidin-3-yl)piperidin-4-yl)-4-fluorobenzenesulfonamide [Compound 8]
- GSH assay, μmol of GSH/mg Protein [1]: 0.11 ± 0.001 μmol of GSH/mg Protein
- LPO assay, MDA levels (malondialdehyde (MDA)): 9.71 ± 0.03 nM/mg of tissue
- SOD assay, SOD units/mg protein [2]: 4.07 ± 0.03 SOD units/mg protein
- Catalase assay, Catalase activity (Catalase): 5.23 ± 0.02 min⁻¹
- Nitrite assay, nitrite conc. (nitrite): 11.92 ± 0.05 μM/mg protein
- escape latency versus scopolamine-treated mice (in words) [3]: significantly reduced escape latency
- Escape latency, 2nd Day [3, 5]: 43 ± 2.68 s
- Escape latency, 3rd Day [3, 5]: 22.66 ± 1.79 s
- Escape latency, 4th Day [3, 5]: 14.16 ± 2.56 s
- Escape latency, 5th Day [3, 5]: 5.66 ± 1.97 s
- μM of AChE/min/mg protein [4]: 0.01 ± 0.01 μM of AChE/min/mg protein
